Measurements published in patent publication US7910141B2, “Antiallergic composition” (Sapporo Breweries Limited, priority 2005, dated 2011).
Where a name gives a salt, the structure may show the parent alone.

Test system: ICR mice
Experiment: DNP-HSA-induced auricular edema in mice (passive cutaneous anaphylaxis)
Assay type: in vivo, mouse
Settings: FIG. 8 experiment
Experimental: Inhibiting Action of Hop Water Extract on DNP-HSA-Induced Auricular Edema in Mice: • Six-week-old ICR mice (male or female; Charles River Laboratories, Japan Inc.) were separated into 4-5 per cage and raised at room temperature (24±2° C.) and 55±15% humidity, with a 12 hour light/dark cycle (light: 8:00-20:00). After preparatory rearing for at least one week, they were provided for the test. A hop pellet water extract, hop leaf water extract or ketotifen fumarate aqueous solution (10 mL/kg) was forcedly administered orally to each test group, while 10 mL/kg of distilled water was forcedly administered orally to the control group. The hop pellet water extract was prepared by adding hop pellets (Czech Saaz) to distilled water to 10% (w/w) and extracting overnight at 4° C., and then centrifuging at 3000 rpm for 10 minutes and filtering. The hop leaf water extract was prepared by adding dry hop leaves (Kokusan hop young leaves) to distilled water to 10% (w/w) and extracting overnight at 4° C., and then centrifuging at 3000 rpm for 10 minutes and filtering. The ketotifen fumarate aqueous solution was prepared by dissolving in distilled water to a concentration of 0.5 mg/mL.
At 1 hour after oral administration, 20 μL of 10 μg/mL mouse anti-DNP-IgE antibody (Sigma) was intradermally injected into one auricle of each mouse, while 20 μL of physiological saline (PS) was intradermally injected into the other auricle. […] The auricular thickness before antigen administration and 30 minutes after antigen administration was measured three times each using a thickness gauge, and the auricular edema ratio and auricular thickness increase were determined. […] The auricular edema ratio (%) was calculated by the formula: (Mean auricular thickness 30 minutes after antigen administration−mean auricular thickness before antigen administration)×100/mean auricular thickness […], and the auricular thickness increase (mm) was calculated by the formula: Mean auricular thickness 30 minutes after antigen administration−mean auricular thickness before antigen administration.

[1] = oral 10 mL/kg, intradermal injection of IgE antibody, 30 minutes after antigen

CN1CCC(=C2c3ccccc3CC(=O)c3sccc32)CC1 [ketotifen fumarate]
auricular edema ratio compared to the distilled water-administered group (t-test) (ketotifen p<0.05, hop extracts p value of 0.08, critical region 5%): significantly inhibited
auricular edema ratio [1]: 12.7±5.4%
auricular thickness increase [1]: 0.045±0.020 mm
